# Experimental data published in BindingDB's records for patent US20240189315 (Boehringer Ingelheim International, 2024).
# Molecular target: Cyclic GMP-AMP synthase (Homo sapiens, UniProt Q8N884)
# Test: in vitro human biochemical cGAS inhibition
# Sequence of Cyclic GMP-AMP synthase (Q8N884 whole entry): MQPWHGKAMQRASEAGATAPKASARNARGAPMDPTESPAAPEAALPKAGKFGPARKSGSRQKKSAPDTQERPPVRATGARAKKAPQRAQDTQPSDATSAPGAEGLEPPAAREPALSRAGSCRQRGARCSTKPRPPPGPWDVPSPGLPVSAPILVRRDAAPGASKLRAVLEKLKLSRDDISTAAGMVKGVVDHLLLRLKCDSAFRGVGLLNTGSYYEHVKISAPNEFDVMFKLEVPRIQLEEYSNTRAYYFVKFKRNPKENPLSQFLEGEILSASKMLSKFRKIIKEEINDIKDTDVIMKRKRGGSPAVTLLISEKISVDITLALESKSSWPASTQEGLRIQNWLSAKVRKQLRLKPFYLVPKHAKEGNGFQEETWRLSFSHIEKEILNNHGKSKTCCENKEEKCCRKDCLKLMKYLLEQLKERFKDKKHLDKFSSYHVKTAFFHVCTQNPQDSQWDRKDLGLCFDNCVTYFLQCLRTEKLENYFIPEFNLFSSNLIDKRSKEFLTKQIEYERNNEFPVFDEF
row,Compound,IC50
1,"COC(=O)[C@@H]1C[C@H](Oc2ncc(Cl)cc2[C@@]2(F)CCS(=O)(=O)C[C@@H]2C)CN1c1nc(C(F)F)nc2c1oc1ccccc12 [US12043625, Example P02 (prodrug of Ex. 1.13)]",> 9.95 µM
2,"C[C@H]1CN2CC[C@]1(F)c1cc(Cl)cnc1O[C@H]1C[C@@H](C(=O)O)N(C1)c1nc(nc3c1oc1ccccc13)CCCCOC2=O [US20240189315, Example 35]",0.027 µM

# Now from value to compound:
row,IC50,Compound
1,> 9.96 µM,"COC(=O)[C@@H]1C[C@H](Oc2ncccc2N2CCOC3(COC3)[C@@H]2C)CN1c1nc(C(F)F)nc2c1oc1ccccc12 [US20240189315, Example P01 of PCT/EP2022/062480) (Prodrug of Ex. 4.04 of PCT/EP-2022/062480)]"
2,> 9.95 µM,"COC(=O)[C@@H]1C[C@H](Oc2ncc(Br)cc2N2CCOC3(COC3)[C@@H]2C)CN1c1nc(C(F)(F)F)nc2c1oc1ccccc12 [US20240189315, Example P02 of PCT/EP2022/062480) (Prodrug of Ex. 1.10 of PCT/EP2022/062480)]"
3,> 9.95 µM,"COC(=O)[C@@H]1C[C@H](Oc2ncc(-c3cccnc3OC)cc2N2CCOC3(COC3)[C@@H]2C)CN1c1nc(C(F)(F)F)nc2c1oc1ccccc12 [US20240189315, Example P04 of PCT/EP2022/062480) (Prodrug of Ex. 3.14 of PCT/EP2022/062480)]"
